In the supplement of paper PMC10307832:

Experiments:
Experiment in all cases: relative viability (nuclei count vs DMSO), 5 days (fraction); higher = more cells survive
[1] = compound: COc1cc(N2CCC(N3CCN(C)CC3)CC2)ccc1Nc1ncc(Cl)c(Nc2ccccc2S(=O)(=O)C(C)C)n1 [NVP-TAE684] + C[C@]1(O)C[C@@H](c2nc(-c3ccc4ccc(-c5ccccc5)nc4c3)c3c(N)nccn32)C1 [Linsitinib] (partner 1 µM)
How it was run: (§1)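 Dosing by pin tool came one day after lung cancer cell lines were seeded in 1536-well plates, using either one drug or a fixed anchor-drug dose plus five library-drug doses (not always all listed) in √10 steps. After 5 days, nuclei were counted on 4× images. Relative viability is treated-well nuclei count divided by vehicle-well nuclei count, and values are medians of duplicate plates.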

[2] = compound: C1=CC=C2C(=C1)N=C(S2)C(C#N)C3=NC(=NC=C3)NCCC4=CN=CC=C4 + CC(C)C[C@H](NC(=O)[C@H](Cc1ccccc1)NC(=O)c1cnccn1)B(O)O [Bortezomib] (partner 0.002 µM)
How it was run: as §1

[3] = compound: COc1cc(N2CCC(N3CCN(C)CC3)CC2)ccc1Nc1ncc(Cl)c(Nc2ccccc2S(=O)(=O)C(C)C)n1 [NVP-TAE684] + O=C(CCCCCCC(=O)Nc1ccccc1)NO [Vorinostat] (partner 1 µM)
How it was run: as §1

[4] = compound: COc1cc2/c(=N/c3ccc(Br)cc3F)nc[nH]c2cc1OCC1CCN(C)CC1 [Vandetanib] + COc1cccc2cc(-c3nc([C@H]4CC[C@H](C(=O)O)CC4)n4ncnc(N)c34)[nH]c12 [OSI-027] (partner 0.5 µM)
How it was run: as §1

UMC-11 showed a relative viability ([1]; first compound 0.2 µM) of 1.14, a relative viability ([1]; first compound 0.6325 µM) of 0.904 and a relative viability ([1]; first compound 2 µM) of 0.282. For the same cell line, the relative viability ([2]; first compound 0.005 µM) was 0.458, the relative viability ([2]; first compound 0.01581 µM) was 0.695 and the relative viability ([2]; first compound 0.05 µM) was 0.901. It also gave a relative viability ([2]; first compound 0.1581 µM) of 0.875, a relative viability ([2]; first compound 0.5 µM) of 0.488 and a relative viability ([3]; first compound 0.2 µM) of 0.385. The relative viability ([3]; first compound 0.6325 µM) was 0.336, the relative viability ([3]; first compound 2 µM) was 0.186 and the relative viability ([4]; first compound 0.02 µM) was 0.472. For the same cell line, the relative viability ([4]; first compound 0.06325 µM) was 0.416, the relative viability ([4]; first compound 0.2 µM) was 0.45 and the relative viability ([4]; first compound 0.6325 µM) was 0.443. The relative viability ([4]; first compound 2 µM) was 0.467.
